Reference: patent publication US20110039770A1, “INHIBITORS OF PROTEIN KINASE C ISOFORMS AND USES THEREOF” (PHARMAGAP INC., priority 2005, published 2011)
Where a SMILES comes first, the peptide text is derived from it. The star is where a group is joined. PNA(A) = NCCN(CC(=O)*)C(=O)Cn1cnc2c(N)ncnc21

Key:
PKC-β = target: T1, PKC-β (Homo sapiens, UniProt P05771); assay: Competition of PRE with PKC-β antibody binding, Protocol B, IMR-32
T1 construct: PRE 2 and PRE 3 in IMR-32 Neuroblastoma Cells: Protocol A; endogenous in cells; host or cells: IMR-32 human neuroblastoma cells
Protocol: The ability of the peptides PRE 2 and PRE 3 (see Table 4) to interfere with the binding of a PKC-α-specific polyclonal antibody (Santa Cruz Biotechnology, Inc.) to PKC-α was determined using a modified version of the protocol outlined above in which the test peptide was added directly to the cell extract prior to electrophoresis at a concentration of either 5× or 15× the concentration of the protein applied to each well of the gel for the Western blots (20 μg).
Peptides PRE 2 and PRE 3 (see Table 4) were tested for their ability to interfere with the binding of a PKC-β-specific polyclonal antibody (Santa Cruz Biotechnology, Inc.) to PKC-β using the general protocol described in Example 3.

MDA MB231 cells = assay: Matrigel invasion/migration with EGF as chemoattractant; format: cell-based, human; details: 24 h; 10 ng/ml EGF
Protocol: Experiments were conducted to investigate the effect of compound TIM 10 (5 mM dose) on migration of human breast cancer cells (MDA MB231) with and without EGF (10 ng/ml) as a chemo-attractant. A standard a two-chamber culture system (BD BIOcoat™ Matrigel™ Invasion Chamber; BD Biosciences Clont, Discovery labware, Immunocytometry system Pharmingen) was employed for these experiments. Control chambers used in the following experiment are similar to the invasion chambers except that no Matrigel matrix is present, thus allowing cells to freely reach the lower membrane surface through the membrane pores.
The ability of compound TIM 10 to inhibit invasion/migration of MDA MB231 cells in the presence of the chemoattractant EGF was measured as described above using EGF 10 ng/mL as the chemoattractant.

PKC delta = PKC delta (Homo sapiens, UniProt Q05655); assay: PKC isoform protein levels in cancer cell lines after TIM 10 (Western blot); format: cell-based; design: endogenous in cells; details: 5 mM by pinocytic influx, 24 hrs
Protocol: (§1) The effect of compound TIM 10 on the levels of protein for various PKC isoforms was assessed as generally described below in the following human cancer cell lines: MDA MB-231 breast adenocarcinoma cells (ATCC HTB-26); T24 bladder transitional cell carcinoma (ATCC HTB-4); SKOV-3 ovary adenocarcinoma (ATCC HTB-77); MCF-7 breast adenocarcinoma (ATCC HTB-22); Capan-2 pancreatic adenocarcinoma (ATCC HTB-80); NCI-H661 NSCL large cells (ATCC HTB-183); Calu-6 probable lung anaplastic carcinoma (ATCC HTB-56) and Calu-3 lung adenocarcinoma (ATCC HTB-55).
(§2) Cells representative of the different cancer types were cultured according to ATCC instructions. At subconfluence, the cells were trypsinized and compound 10 (5 mM) was incorporated into the cells by pinocytic influx endocytosis according to the manufacturer's instructions (Molecular Probe). Matching controls were treated accordingly except that vehicle was incorporated instead of compound 10. Following pinocytic influx, the cells were seeded and allowed to grow in fresh medium for 24 hrs. The cell cultures were further extracted using RIPA lysis buffer according to standard protocol. The protein content of each lysate was measured using Bradford protein estimation procedure (BioRad) and normalized. Following addition of sample buffer, the proteins from 15 μl of each extract were separated by electrophoresis, electro-transferred to nitrocellulose membranes and the various isoforms of PKC were detected using appropriate antibodies (Santa Cruz Biotechnology, Inc., CA). The relative intensity of bands of the expected molecular weight was estimated after scanning and the % decrease in the band intensity relative to control was calculated.

PKC zeta = target: T2, PKC zeta (Homo sapiens, UniProt Q05513); assay: as above; format: cell-based; design: endogenous in cells; details: 5 mM by pinocytic influx, 24 hrs
T2 sequence (Q05513 1-592): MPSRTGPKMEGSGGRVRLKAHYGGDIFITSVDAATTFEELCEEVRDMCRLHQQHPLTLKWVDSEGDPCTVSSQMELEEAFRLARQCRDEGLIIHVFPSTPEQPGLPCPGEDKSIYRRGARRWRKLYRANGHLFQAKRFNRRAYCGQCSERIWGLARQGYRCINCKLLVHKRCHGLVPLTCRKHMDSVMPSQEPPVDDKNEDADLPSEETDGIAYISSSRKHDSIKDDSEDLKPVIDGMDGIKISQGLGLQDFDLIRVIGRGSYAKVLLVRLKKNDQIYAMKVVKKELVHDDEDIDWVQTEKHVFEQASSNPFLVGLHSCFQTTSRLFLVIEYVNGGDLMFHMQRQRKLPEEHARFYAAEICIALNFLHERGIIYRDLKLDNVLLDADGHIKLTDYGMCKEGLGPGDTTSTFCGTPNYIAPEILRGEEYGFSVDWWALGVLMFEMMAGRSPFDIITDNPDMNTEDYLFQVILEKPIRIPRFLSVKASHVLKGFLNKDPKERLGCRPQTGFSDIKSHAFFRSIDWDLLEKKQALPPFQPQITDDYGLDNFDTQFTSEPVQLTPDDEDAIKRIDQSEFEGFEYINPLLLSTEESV
Protocol: as §1, §2

Chain of PKC delta (Q05655 whole entry, canonical isoform): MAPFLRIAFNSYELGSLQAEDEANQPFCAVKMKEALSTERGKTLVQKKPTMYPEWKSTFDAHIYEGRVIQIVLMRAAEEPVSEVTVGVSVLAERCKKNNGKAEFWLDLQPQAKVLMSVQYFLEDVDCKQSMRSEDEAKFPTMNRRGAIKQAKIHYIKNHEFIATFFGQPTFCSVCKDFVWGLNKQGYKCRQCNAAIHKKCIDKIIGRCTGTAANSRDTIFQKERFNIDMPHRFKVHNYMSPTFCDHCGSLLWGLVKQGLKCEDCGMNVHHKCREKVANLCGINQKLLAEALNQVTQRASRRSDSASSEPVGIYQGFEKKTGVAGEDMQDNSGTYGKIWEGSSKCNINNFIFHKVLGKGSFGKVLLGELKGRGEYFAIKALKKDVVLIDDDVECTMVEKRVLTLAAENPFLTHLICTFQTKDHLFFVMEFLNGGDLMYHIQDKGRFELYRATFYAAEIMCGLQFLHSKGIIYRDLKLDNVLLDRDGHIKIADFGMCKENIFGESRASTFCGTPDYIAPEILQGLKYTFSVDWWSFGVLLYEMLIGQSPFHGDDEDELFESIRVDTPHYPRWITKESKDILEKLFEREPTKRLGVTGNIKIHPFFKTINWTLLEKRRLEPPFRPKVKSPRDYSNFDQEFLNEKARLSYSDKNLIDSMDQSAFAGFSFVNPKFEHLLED
T1 sequence (P05771 whole entry): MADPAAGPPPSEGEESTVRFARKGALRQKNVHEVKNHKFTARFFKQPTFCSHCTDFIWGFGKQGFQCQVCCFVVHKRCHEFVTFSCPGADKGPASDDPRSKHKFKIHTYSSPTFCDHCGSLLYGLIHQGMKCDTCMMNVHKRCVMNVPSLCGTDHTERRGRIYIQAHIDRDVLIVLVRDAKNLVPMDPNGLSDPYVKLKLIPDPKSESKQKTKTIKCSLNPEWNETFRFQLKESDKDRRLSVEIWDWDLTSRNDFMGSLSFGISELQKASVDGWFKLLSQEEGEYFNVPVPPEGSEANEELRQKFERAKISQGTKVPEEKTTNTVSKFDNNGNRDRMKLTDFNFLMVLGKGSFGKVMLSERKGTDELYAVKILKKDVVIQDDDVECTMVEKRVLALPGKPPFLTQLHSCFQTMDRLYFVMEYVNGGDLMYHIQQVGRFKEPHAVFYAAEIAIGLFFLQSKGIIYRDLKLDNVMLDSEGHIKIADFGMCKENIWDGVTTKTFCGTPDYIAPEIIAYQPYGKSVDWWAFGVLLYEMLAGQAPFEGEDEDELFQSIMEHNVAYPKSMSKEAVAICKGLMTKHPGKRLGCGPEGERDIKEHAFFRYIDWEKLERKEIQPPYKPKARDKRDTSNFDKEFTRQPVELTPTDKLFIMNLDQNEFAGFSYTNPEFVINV

SMILES | Band Intensity (PKC-β; 100 μg) | Relative Intensity (%) (PKC-β; 100 μg) | Band Intensity (PKC-β; 200 μg) | Band Intensity (PKC-β; 300 μg) | Relative Intensity (%) (PKC-β; 300 μg) | inhibition in cell growth (MDA MB231 cells) [%] | % decrease PKC-δ band intensity relative to control (PKC delta; Calu-3) [%] | % decrease PKC-δ band intensity relative to control (PKC delta; Calu-6) [%] | % decrease PKC-δ band intensity relative to control (PKC delta; Capan-2) [%] | % decrease PKC-δ band intensity relative to control (PKC delta; H661) [%] | % decrease PKC-δ band intensity relative to control (PKC delta; MCF-7) [%] | % decrease PKC-δ band intensity relative to control (PKC delta; MDA-MB231) [%] | % decrease PKC-δ band intensity relative to control (PKC delta; SK-OV-3) [%] | % decrease PKC-δ band intensity relative to control (PKC delta; T24) [%] | % decrease PKC-ζ band intensity relative to control (PKC zeta; Capan-2) [%] | % decrease PKC-ζ band intensity relative to control, Band 1 (PKC zeta; H661, Band 1) [%] | % decrease PKC-ζ band intensity relative to control, Band 2 (PKC zeta; H661, Band 2) [%] | % decrease PKC-ζ band intensity relative to control (PKC zeta; MCF-7) [%] | % decrease PKC-ζ band intensity relative to control (PKC zeta; MDA-MB231) [%] | % decrease PKC-ζ band intensity relative to control (PKC zeta; T24) [%]
CC[C@H](C)[C@H](NC(=O)[C@H](CO)NC(=O)[C@@H](NC(=O)CNC(=O)[C@@H](NC(=O)[C@H](CC(C)C)NC(=O)[C@H](CC(N)=O)NC(=O)[C@H](CCC(N)=O)NC(=O)[C@H](C)NC(=O)[C@H](CC(=O)O)NC(=O)CNC(=O)CNC(=O)[C@H](CCCCN)NC(=O)[C@@H](NC(=O)[C@H](CCC(=O)O)NC(=O)[C@H](CCC(N)=O)NC(=O)[C@@H](NC(=O)CNC(=O)[C@H](CCCCN)NC(=O)[C@H](C)NC(C)=O)[C@@H](C)CC)C(C)C)[C@@H](C)CC)[C@@H](C)CC)C(N)=O [PRE 3] (Ac-AKGIQEVKGGDAQNLIGISI-NH2) | 0.0 | 0.0 | 0.0 | 0.0 | 0.0 |  |  |  |  |  |  |  |  |  |  |  |  |  |  | 
CC[C@H](C)[C@H](NC(=O)[C@H](CO)NC(=O)[C@@H](NC(=O)CNC(=O)[C@@H](NC(=O)[C@H](CC(C)C)NC(=O)[C@H](CC(N)=O)NC(=O)[C@H](CCC(N)=O)NC(=O)[C@H](C)NC(=O)[C@H](CC(=O)O)NC(=O)[C@H](CCCCN)NC(=O)CNC(=O)CNC(=O)CNC(=O)CNC(=O)CNC(=O)CNC(=O)CNC(=O)[C@H](CC(C)C)NC(=O)[C@H](CCCNC(=N)N)NC(=O)[C@H](Cc1ccccc1)NC(=O)[C@H](CCCCNC(=O)CN(CCN)C(=O)Cn1cnc2c(N)ncnc21)NC(=O)[C@H](CCCNC(=N)N)NC(=O)[C@H](CCCNC(=N)N)NC(=O)[C@H](Cc1ccccc1)NC(C)=O)[C@@H](C)CC)[C@@H](C)CC)C(N)=O [TIM 10] (Ac-FRRK(PNA(A))FRLGGGGGGGKDAQNLIGISI-NH2) |  |  |  |  |  | 25 | 22.2 | 18.9 | 53.3 | 0.0 | 21.5 | 36.6 | 0.0 | 62.2 | 0.0 | 13.4 | 0.0 | 7.3 | 0.0 | 0.0
